Assays:
mushroom tyrosinase = experiment: Tyrosinase inhibition assay; format: biochemical; conditions: for tyrosinase enzyme inhibition versus kojic acid: even at high concentrations (5%)
Description: Rosamox (0.1%, 0.05% and 0.01%), Lysofix dry (0.1%, 0.05% & 0.01%) and Chinese lantern oil (0.1%, 0.05%, 0.01% & 0.005%) were tested for inhibition of tyrosinase enzyme activity. Kojic acid (2%, 1% & 0.5%), β-arbutin (5%, 2%, 1% & 0.5%) and hydroquinone (5%, 2%, 1% & 0.5%) served as positive controls in this study. Rosamox and Chinese lantern oil samples were prepared in Dimethylsulfoxide (DMSO). Lysofix sample, positive controls, 3,4-dihydroxyphenyl-alanine (L-DOPA) and mushroom tyrosinase were prepared using 0.1 M phosphate buffer (pH-6.6).
Tyrosinase inhibition potential of natural ingredients was measured using a modified method published previously by Uchida et al^12. Briefly, the test samples or positive control (20 μL) were added to the reaction mixture containing 0.12 mL of 0.1 M potassium phosphate buffer (pH 6.6) in 96 well microplates and incubated at room temperature for 2 minutes. After 2 minutes of incubation, 40 μL of 10 mM L-DOPA solution was added to the reaction mixture and incubated for 5 minutes at 37° C. using a benchtop incubator (Fisher scientific, PA). Twenty microliters of mushroom tyrosinase (200 units/mL) was added to the above reaction mixture and incubated at 37° C. in a conventional lab incubator (Fisher Scientific, PA) for 10 minutes. The amount of dopachrome produced in the reaction mixture was measured spectrophotometrically using Spectramax Me5 plate reader at 475 nm. The tyrosinase activity and the % inhibition of tyrosinase in presence of test material were calculated as follows:
Tyrosinase activity=(S(Abs)−B(Abs))/C(Abs)×100
Inhibition (%)=1−{(S(Abs)−B(Abs))}/C(Abs)×100 Equation 1. • Formula for Measuring tyrosinase activity and % tyrosinase inhibition, where S(Abs)—sample absorbance; B(Abs)—Blank absorbance (Without enzyme) and C(Abs)—Control Absorbance [Buffer and DMSO].

[1] = system: murine melanoma cell model; conditions: cited from earlier work
MelanoDerm tissue = experiment: Microscopic observation of MelanoDerm tissue; format: cell-based, human; conditions: end of 21 days
Description: For visualization of treatment effect on tissue culture, microscopic observation of MelanoDerm tissue on day 1, 4, 10, 14 and finally on day 21 was carried out using glass bottom microwell dish with the help of benchtop inverted microscope (Nikon Inc., NY) at 20× magnification. Images were captured using Tucsen camera (Xintu Photonics Co., China) attached to the microscope.

[2] = system: melanocyte-keratinocyte co-culture (HEK001 keratinocytes and primary epidermal melanocytes); experiment: Melanin inhibition in melanocyte-keratinocyte co-culture; format: cell-based, human
Description: Cell culture studies were performed using Human Epidermal Keratinocytes (HEK) continuous cell lines [HEK001 (ATCC® CRL-2404™) lot #61331463] and Primary epidermal melanocytes (ATCC PCS-200-013, lot #60948598). HEK cells were grown in the HEK growth media consisting of keratinocytes serum free medium (GIBCO-BRL 17005042, lot #1638561) with 5 ng/mL human recombinant epidermal growth factor (EGF) (ATCC, lot #1584416) and 2 mM L-glutamine (ATCC, lot #62195752) (without bovine pituitary extract and serum). HEK growth media was supplemented with penicillin (10000 units) and streptomycin (10 mg/mL) solution (Gibco, lot #1469707). Primary epidermal melanocytes growth media consisting of Dermal cell basal medium (ATCC PCS-200-030) with Melanocytes Growth kit [ATCC PCS-200-042] (rh Insulin 5 μg/mL, Ascorbic acid 50 μg/mL, L-glutamine 6 mM, Epinephrine calcium chloride 1.5 μM peptide growth factor and M8 supplement) and supplemented with penicillin (10 units/mL)-streptomycin (10 μg/mL)-Amphotericin B solution (25 ng/mL). […]
HEK cells were harvested by treatment with trypsin/EDTA solution and resuspended in HEK media. Viable cells were determined by trypan blue exclusion study and counted using a hemocytometer. […]

Structure (SMILES): Oc1ccc(O)cc1 [Hydroquinone, hydroquinone]
- tyrosinase enzyme inhibition versus kojic acid (mushroom tyrosinase): not as effective as kojic acid

Structure (SMILES): CCCCC/C=C\C/C=C\CCCCCCCC(=O)O [Linoleic acid]
- reduction of melanogenesis and amount of tyrosinase protein [1]: effective in reduction of melanogenesis

Structure (SMILES): O=c1cc(CO)occ1O [kojic acid, Kojic acid]
- melanin granules in microscopic images (MelanoDerm tissue; 0.5%): presence of some melanin granules
- melanin granules in microscopic images (MelanoDerm tissue; 1% and 2%): no sign of melanin granules
- melanin production compared to control ([2]; 2% (highest tested concentration), p<0.005): maximum effect
- melanin production compared to control ([2]; tested concentrations (2%, 1%, 0.5%), 5 days treatment): significant reduction in melanin production
- tyrosinase enzyme inhibition compared to control (mushroom tyrosinase; all concentrations (0.5%, 1% and 2%)): effective in inhibiting tyrosinase enzyme

Structure (SMILES): OC[C@H]1O[C@@H](Oc2ccc(O)cc2)[C@H](O)[C@@H](O)[C@@H]1O [β-arbutin]
- tyrosinase enzyme inhibition versus kojic acid (mushroom tyrosinase): not as effective as kojic acid

From patent US20190209454A9, “DETERMINATION OF MELANIN INHIBITION POTENTIAL OF NATURAL INGREDIENTS” (Kemin Industries, Inc., priority 2016, published 2019)
